Reference: PMC6148290, “Endogenous metabolites of vitamin E limit inflammation by targeting 5-lipoxygenase” (Nature Communications, 2018)

What was measured:
[1] = cited from earlier work; for plasma levels in humans: ref Mangialasche et al., 2012
12-LO = molecular target: T1, 12-LO (Homo sapiens, UniProt P18054); assay: 12-LO product formation in A23187/AA-activated PMNL; assay type: cell-based; details: at 3 µM; mean ± s.e.m., n = 3; n.i. no inhibition
T1 construct: 12-HETE (12-LO product from platelets in PMNL preparations); endogenous in cells; host or cells: platelets contaminating human PMNL preparations
T1 sequence (P18054 1-663): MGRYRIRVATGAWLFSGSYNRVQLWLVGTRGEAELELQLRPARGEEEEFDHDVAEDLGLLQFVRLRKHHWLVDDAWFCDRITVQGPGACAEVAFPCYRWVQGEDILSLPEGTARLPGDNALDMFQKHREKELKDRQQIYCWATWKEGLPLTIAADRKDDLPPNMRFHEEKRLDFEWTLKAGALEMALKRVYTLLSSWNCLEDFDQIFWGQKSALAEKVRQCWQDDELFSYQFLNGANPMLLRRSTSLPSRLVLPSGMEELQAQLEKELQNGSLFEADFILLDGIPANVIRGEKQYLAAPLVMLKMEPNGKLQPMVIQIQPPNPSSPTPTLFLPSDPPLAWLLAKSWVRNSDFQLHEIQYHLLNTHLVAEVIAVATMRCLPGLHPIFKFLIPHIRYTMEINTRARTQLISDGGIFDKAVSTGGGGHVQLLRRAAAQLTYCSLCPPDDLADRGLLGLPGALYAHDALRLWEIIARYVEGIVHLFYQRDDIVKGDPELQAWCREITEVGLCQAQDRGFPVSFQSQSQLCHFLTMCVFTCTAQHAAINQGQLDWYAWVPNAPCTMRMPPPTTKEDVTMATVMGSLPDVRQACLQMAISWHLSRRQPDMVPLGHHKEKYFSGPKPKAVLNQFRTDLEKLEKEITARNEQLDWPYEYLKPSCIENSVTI
Protocol: (§1) Cells were washed and medium was exchanged. Freshly isolated PMNL (1 × 10^7) and stably transfected HEK-293 (1 × 10^6) cells were suspended in PBS pH 7.4 containing 1 mg/ml glucose and 1 mM CaCl2. […] A23187- and A23187/AA-treated PMNL and A23187/AA-treated HEK-293 (5-LO_wt), HEK-293 (5-LO_3W) and HEK-293 (5-LO_Arg101Asp) cells produced 135 ± 21, 636 ± 112, 300 ± 59, 133 ± 29, 55 ± 9 ng 5-LO products, respectively. PMNL synthesized 29 ± 6 ng 12-HETE and 97 ± 23 ng 15-HETE when challenged with A23187/AA. 5-LO products from monocytes were analyzed by UPLC-MS/MS.

15-LO = 15-LO product formation in A23187/AA-activated PMNL; assay type: cell-based, human; details: at 3 µM; mean ± s.e.m., n = 3; n.i. no inhibition
Protocol: as §1

5-LO [2] = molecular target: T2, 5-LO (Homo sapiens, UniProt P09917); assay: 5-LO product formation in activated PMNL; assay type: cell-based; set-up: Freshly isolated PMNL (1 × 10^7); endogenous in cells; host or cells: human PMNL freshly isolated from leukocyte concentrates; details: cell-based; mean ± s.e.m., n = 3; read-out: IC50, activated PMNL (5-LO)
T2 sequence (P09917 1-674): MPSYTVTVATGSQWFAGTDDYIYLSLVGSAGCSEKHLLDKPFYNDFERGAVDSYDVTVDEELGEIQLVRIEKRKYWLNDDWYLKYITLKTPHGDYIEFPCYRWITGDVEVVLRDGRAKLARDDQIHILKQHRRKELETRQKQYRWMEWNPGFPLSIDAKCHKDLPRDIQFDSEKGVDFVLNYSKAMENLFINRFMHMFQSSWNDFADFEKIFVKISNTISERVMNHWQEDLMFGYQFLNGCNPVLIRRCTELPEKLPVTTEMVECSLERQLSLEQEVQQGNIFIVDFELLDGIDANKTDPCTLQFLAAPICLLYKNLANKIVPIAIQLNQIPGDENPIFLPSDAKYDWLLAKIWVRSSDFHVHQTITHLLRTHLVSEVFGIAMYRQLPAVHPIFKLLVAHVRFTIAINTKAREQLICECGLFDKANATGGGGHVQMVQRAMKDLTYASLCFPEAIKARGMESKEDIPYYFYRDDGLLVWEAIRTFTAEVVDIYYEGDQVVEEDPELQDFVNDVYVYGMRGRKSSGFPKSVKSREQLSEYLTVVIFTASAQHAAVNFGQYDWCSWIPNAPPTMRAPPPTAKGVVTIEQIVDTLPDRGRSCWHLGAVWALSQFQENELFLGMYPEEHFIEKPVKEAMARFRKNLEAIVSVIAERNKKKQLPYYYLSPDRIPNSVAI
Text: Human PMNL, monocytes, PBMC, and platelets were freshly isolated from leukocyte concentrates. The protocols for experiments with human blood and blood cells were approved by the ethical commission of the Friedrich-Schiller-University Jena. […] PMNL were recovered from the pellet after hypotonic lysis of erythrocytes. Platelets were obtained from the supernatant and washed with PBS pH 5.9/0.9% NaCl (1:1). […]

[3] = test system: zymosan-induced murine peritonitis; assay: Zymosan-induced peritonitis in mice; assay type: in vivo, mouse; details: 10 mg/kg i.p.; 30 min post zymosan; ELISA
Protocol: Mice were killed by inhalation of CO2 after another 30 min for determination of LTC4 levels and vascular permeability and after 4 h for the analysis of LTB4 levels, lipidomic profiles and immune cell infiltration. Cell infiltration and lipid mediator profiles during resolution were studied after 18 h. Peritoneal exudates were collected and cells counted after vital trypan blue staining. LTC4, LTB4, and PGE2 were analyzed in the exudate by enzyme immunoassays (Enzo Life Sciences, Lörrach, Germany) according to manufacturer's instructions. To assess vascular permeability, Evans blue dye (40 mg/kg in saline, 0.3 ml; Sigma-Aldrich) was injected into the tail vain immediately before the induction of peritonitis. Exudates were centrifuged (3000 × g, 5 min) and the absorbance of the supernatants was measured at 610 nm using a Beckman Coulter DU730 spectrophotometer. To investigate the effect of α-T (1a) on the accumulation of α-T-13'-COOH (4a) in infiltrated leukocytes after peritonitis has been established, vehicle or α-[…].) were given 1 h before and/or 4 h post zymosan injection, and mice were killed after another 1.5 h. Leukocytes were obtained from peritoneal exudates by centrifugation (1200 × g, 10 min, 4 °C).

[4] = test system: peripheral blood mononuclear cells; assay: Cell viability of PBMC (MTT assay); assay type: cell-based, human; details: at 1 and 10 µM (one entry for both); 24 h; n.i. no inhibition
Protocol: The formazan product was solubilized with SDS (10% in 20 mM HCl), and absorbance was measured at 570 nm using a Multiskan Spectrum microplate reader (Thermo Fisher Scientific).

5-LO [5] = molecular target: T2, 5-LO; assay: Activity of purified human recombinant 5-LO (cell-free); assay type: biochemical; set-up: made in house; host or cells: E. coli Bl21 (DE3); details: cell-free; mean ± s.e.m., n = 3; read-out: IC50, human recombinant 5-LO
Protocol: E. coli Bl21 (DE3) cells were transformed with pT3–5LO plasmid to express human recombinant 5-LO, which was purified by affinity chromatography on an ATP-agarose column. In brief, E. coli was lysed in 50 mM triethanolamine/HCl pH 8.0 plus EDTA (5 mM), soybean trypsin inhibitor (60 µg/ml), phenylmethanesulphonyl fluoride (1 mM), dithiothreitol (1 mM), and lysozyme (1 mg/ml). After sonication (3 × 15 s), the homogenate was centrifuged at 10,000 × g for 15 min and the supernatant again at 40,000 × g for 70 min at 4 °C. The supernatant was applied to an ATP-agarose column (Sigma-Aldrich), and the column was washed with (i) PBS pH 7.4, 1 mM EDTA, (ii) 50 mM phosphate buffer pH 7.4, 0.5 M NaCl, 1 mM EDTA, and (iii) 50 mM phosphate buffer pH 7.4, 1 mM EDTA. 5-LO was eluted with 50 mM phosphate buffer pH 7.4, 1 mM EDTA, 20 mM ATP.
Purified 5-LO (0.5 µg) in PBS pH 7.4 containing EDTA (1 mM) and ATP (1 mM) was pre-incubated with LCMs for 10 min at 4 °C, pre-warmed for 30 s at 37 °C and 5-LO product formation was started by addition of AA (Sigma-Aldrich; 20 µM if not indicated otherwise) plus CaCl2 (2 mM). […] AA was added after incubation for 5 min on ice.

[6] = Water solubility (statement); assay type: physicochemical; details: authors' statement in reply to reviewer
intracellular Ca^2+ = assay: Intracellular Ca2+ in fMLP-stimulated PMNL; assay type: cell-based, human
Protocol: PMNL (1 × 10^6) were incubated with Fura-2/AM (Thermo Fisher Scientific; 2 nmol) for 45 min at 37 °C, washed, resuspended in PBS pH 7.4 plus 1 mg/ml glucose and transferred to fluorescene 96-well microplates (Greiner). After pre-incubation with compounds for 10 min, 1 mM Ca^2+ was added, and cells were stimulated with fMLP (1 µM) for another 10 min. Intracellular Ca^2+ concentrations were determined using a thermally (37 °C) controlled NOVOstar fluorescence microplate reader [BMG Labtech, Ortenberg, Germany; emission at 510 nm, excitation at 340 nm (Ca^2+-bound Fura-2) and 380 nm (free Fura-2)][17]. The maximal fluorescence signal was recorded after lysis of […] with Triton X-100, and the minimal fluorescence was assessed by adding 20 mM EDTA to chelate Ca^2+. The difference in the signal ratio obtained with Triton X-100 and Triton X-100 plus 20 mM EDTA was set to 100% for each experiment.

DPPH radical scavenging = assay: DPPH radical scavenging
Protocol: Compounds were incubated with 2,2-diphenyl-1-picrylhydrazyl (DPPH, Sigma-Aldrich; […]) in ethanol for 30 min. Absorbance was measured at 520 nm using a Multiskan Spectrum Microplate Reader (Thermo Fisher Scientific)[35]. Ascorbic acid (Sigma-Aldrich; 50 µM), used as control, scavenged DPPH radicals by 82.4 ± 1.9%.

[7] = molecular target: T3, human recombinant LTC4 synthase (LTC4S) (Homo sapiens, UniProt Q16873); assay: LTC4 synthase activity; assay type: biochemical; details: 10 µM; reference inhibitor
T3 construct: expressed in transfected cells; host or cells: HEK-293 cells stably expressing LTC4S (microsomal membranes)
T3 sequence (Q16873 1-150): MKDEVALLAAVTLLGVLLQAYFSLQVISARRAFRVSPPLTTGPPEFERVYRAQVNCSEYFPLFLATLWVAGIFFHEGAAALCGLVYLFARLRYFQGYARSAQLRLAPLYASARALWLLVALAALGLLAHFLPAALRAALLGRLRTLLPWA
Protocol: To investigate the effect of LCMs on LTC4S activity, we used microsomal membranes from HEK-293 cells stably expressing LTC4S[70]. […] The conversion of LTA4 to LTC4 methyl esters was initiated by addition of LTA4 methyl ester (Cayman Chemicals; 1 µM). After 10 min at 4 °C, the reaction was terminated by ice-cold methanol (one volume), and LTC-d5 methyl ester (5 ng; Cayman Chemicals) was added as internal standard. LTC4 was extracted and analyzed by UPLC-MS/MS as described for lipid mediators. Vehicle (DMSO)-treated microsomal membranes produced 7.1 ± 0.5 nmol LTC4.

Row | Structure (SMILES) | 12-LO product formation/PMNL, residual activity (12-LO) | 15-LO product formation/PMNL, residual activity (15-LO) | IC50 (5-LO [2]) | Cell viability/peripheral blood mononuclear cells, residual viability [4] | IC50 (5-LO [5]) | also measured
1 | Cc1c(C)c2c(c(C)c1O)CC[C@@](C)(CCC[C@H](C)CCC[C@H](C)CCCC(C)C)O2 [1a, α-tocopherol] | n.i. | n.i. | 808000 ± 159000 nM | n.i. | > 1000 nM | plasma levels in humans [1]: 25 to 35 µM; hepatic tissue concentrations ([1]; ref Nagita et al., 1997): 70 to 530 nmol/g; human plasma level ([1]; ref Nagita et al., 1997): 14 to 27 µM; LTC4 levels in the exudate [3]: significantly less effective
2 | Cc1cc(O)cc2c1O[C@](C)(CCC[C@H](C)CCC[C@H](C)CCCC(C)C)CC2 [1d] | n.i. | 86.6 ± 15.8 % of control | 85000 ± 5000 nM | n.i. | 310 ± 100 nM | plasma levels in humans [1]: 0.01 µM
3 | Cc1c(C)c2c(c(C)c1O)CC[C@@](C)(CCCC(C)CCCC(C)CCCC(C)CO)O2 (some centres unmarked) [2a] | 84.7 ± 4.7 % of control | 156.7 ± 26.2 % of control | 190 ± 50 nM | n.i. | 350 ± 40 nM | 
4 | Cc1cc(O)cc2c1O[C@](C)(CCC[C@H](C)CCC[C@H](C)CCCC(C)CO)CC2 (some centres unmarked) [2d] | 84.8 ± 7.8 % of control | 142.8 ± 13.9 % of control | 540 ± 20 nM | n.i. | 120 ± 40 nM | 
5 | C/C(=C\CC/C(C)=C/CC/C(C)=C/CC[C@]1(C)CCc2cc(O)cc(C)c2O1)CO [2h] | n.i. | n.i. | 1260 ± 330 nM | n.i. | 150 ± 50 nM | 
6 | C/C(=C\CC/C(C)=C/CC[C@]1(C)CCc2cc(O)cc(C)c2O1)CC/C=C(\C)C(=O)O [4h, garcinoic acid] | 75.1 ± 12.1 % of control | 128.6 ± 42.3 % of control |  | n.i. |  | water solubility [6]: poor; concentration at which intracellular Ca^2+-influx was significantly reduced (intracellular Ca^2+): ≥ 1 µM; radical scavenging as measure for antioxidant activity (DPPH radical scavenging; DPPH): only evident at micromolar
7 | O=C1O[C@H]([C@@H](O)CO)C(O)=C1O [Ascorbic acid, reference compound] |  |  |  |  |  | DPPH radicals scavenged (DPPH radical scavenging; 50 µM, control): 82.4 ± 1.9%
8 | CC(C)c1ccc2c(c1)c(SC(C)(C)C)c(CC(C)(C)C(=O)O)n2Cc1ccc(Cl)cc1 [MK-886, reference compound] |  |  |  |  |  | suppression of LTC4 formation [7]: 95.6 ± 0.9%
